Laboratory results taken from patent publication US10767151B2, “Device for cell culture” (priority 2008, dated 2020).
Entries after “also recorded” stand apart in the source; their conditions may differ. Where a SMILES comes first, the peptide text is derived from it. [ ]: non-standard residue; d: D form. The star is where a group is joined. Nle = CCCC[C@H](N)C(=O)O; Cbz = O=C(OCc1ccccc1)*; CH2F = FC*

Tests used:
Type in all cases: cell-based, mouse
[1] = system: cortical axons; experiment: Axotomy of the central portion of cortical axons in three-chamber device D4, Wallerian degeneration model (Example 15)
Description: The microfluidic device represented in image 4a of FIG. 20 is similar to that described previously with reference to FIGS. 1C to 1H and comprises three chambers. It is device D4. This makes it possible to apply molecules of interest on the central portion of the axons, for example a detergent (Triton X100, 0.1%), applied for 1 min. […] In this example, although the cortical axons sectioned in their central portion are still intact after one hour of section, they degenerate after 4 h. This constitutes a model of Wallerian degeneration (degeneration of the distal portion of axons). The potential of compounds which protect against this effect can be evaluated by applying them specifically in one or more of the chambers of the device. […] This experiment was carried out with device D4. The experiment, carried out on a corticostriatal network, makes it possible to illustrate that it is possible to objectivize a phenomenon of synaptic degeneration after application of a stress at the cortical level (in this case axotomy) (disappearance of Vglu-1 labeling which is specific for cortical presynaptic structures). […] FIGS. 20 and 21 illustrate the consequences of the axotomy of cortical axons of a corticostriatal network. […]

[2] = system: corticostriatal network; experiment: Synaptic degeneration on a corticostriatal network after cortical axotomy, Vglut-1 presynaptic structures (Example 16); details: NAD added to striatal compartment at the time of axotomy / pretreated
Description: Photographs a and b of FIG. 21 represent cortical, central and striatal chambers of reconstructed corticostriatal networks in three-chamber microfluidic devices.
The neurons were labeled on MAP2 (blue), β3-tubulin (green) and Vglut-1 (red).
Photograph c is representative of cortical-presynaptic structures (Vglut1, red) attached to striatable dendrites (MAP2, blue) after 1, 2, 4 and 6 hours of axotomy or controlled culture or culture pretreated with NAD.
Photograph d illustrates the quantification of a presynaptic cortical structure attached to MAP2-positive striatal dendrites after cortical axotomy.
This experiment was carried out with device D4. The experiment, carried out on a corticostriatal network, makes it possible to illustrate that it is possible to objectivize a phenomenon of synaptic degeneration after application of a stress at the cortical level (in this case axotomy) (disappearance of Vglu-1 labeling which is specific for cortical presynaptic structures). […] FIGS. 20 and 21 illustrate the consequences of the axotomy of cortical axons of a corticostriatal network. This axotomy causes the propagation of a signal resulting in rapid degeneration of the presynaptic compartment (FIG. 21) of the corticostriatal junction, and then in degeneration of the cortical axons (FIG. 20).

[3] = system: cortical neurons; experiment: Saponin axotomy of cortical neurons in three-chamber device, axonal fragmentation by tubulin labeling (Example 20); details: for occurrence of axon fragmentation after axotomy: 50 μM applied to the distal segments of axons at the time of axotomy, FIG. 29; for protective effect against axon fragmentation after axotomy: applied 24 h before axotomy (not shown)
Description: The cortices of 14-day mouse embryos are dissected and dissociated as has already been described elsewhere, for example Eur J Neurosci 2001 June; 13(11): 2037-46 William S et al. The neurons are seeded into the somatic chamber (also called compartment) of the circuits at a density of 10^5 cells/cm^2. In this manner, about 4×10^4 neurons are seeded into the somatic chamber. The culture medium consists of DMEM containing 4.5 g/l D-glucose and pyruvate (Invitrogen, Carlsbad, USA), supplemented with 10% of FCS (fetal calf serum; PAA Laboratories, Pasching, Germany) and with 2% of B27 (Invitrogen). The medium is replaced every three days until the beginning of the experiment, and the cultures are conserved in an incubator at 37° C. and 5% CO2. The experiments are carried out after 7 to 8 days of culture in vitro. The calpain inhibitor N-acetyl-Leu-Leu-Nle-CHO (ALLN; Calbiochem), the general caspase inhibitor Z—V-A-D-fluoromethyl ketone (z-VAD; R1D Systems, Minneapolis, USA) and β-nicotinamide adenine dinucleotide hydrate (βNAD; Sigma) are introduced into the culture medium at the beginning of the experiments.
In order to carry out the axotomy, a flow of 15 μl of medium containing 0.1% of saponin is produced for 2 minutes in the central chamber. In order to avoid the flow of detergent entering the microchannels, an overpressure is maintained in the somatic and axonal chambers throughout the experiment. After 2 minutes of flow, the medium containing the saponin is removed and the central macrochannel is rinsed with culture medium for 5 min. Fresh medium is then added to this channel.
After a given culture time (optionally according to the moment at which the axotomy experiment is carried out), the neuron cultures are fixed with a 4% paraformaldehyde solution (Sigma) so as to undergo analysis by immunocytochemistry. The circuits are labeled by immunofluorescence with an anti-MAP2 antibody (rabbit IgG, 1:3000; Chemicon, Temecula, USA), and an anti-β-III-tubulin monoclonal antibody (mouse IgG, 1:3000; Sigma) for labeling the cytoskeletal proteins. The circuits are fluorescently labeled with Hoechst 33342 (1:25000; Sigma) for labeling the nucleus. In a separate experiment, the circuits were also labeled by immunofluorescence with an anti-glial fibrillary acidic protein antibody (GFAP, rabbit IgG, 1:5000; DakoCytomation, Glostrup, Denmark) which makes it possible to label the astrocytes. A part of the cultures was subjected to fixing and extraction. This procedure makes it possible to eliminate the tubulin free in the cytoplasm while at the same time fixing the microtubules. These cultures were labeled by immunofluorescence with an anti-a-tubulin monoclonal antibody conjugated to the fluorophore FITC (Sigma) and labeled with phalloidin linked to an Alexa Fluor 555 (Invitrogen) so as to reveal the microtubules and the actin cytoskeleton, respectively. The images were acquired using an inverted epifluorescence microscope (Zeiss, Goettingen, Germany) equipped with a CoolSnap HQ2 camera (Roper Scientific, Ottobrunn, Germany) and using the micro-manager acquisition software (http://www.micro-manager.org).
The axonal degeneration is estimated by comparing the type of tubulin labeling of fragmented axons or of intact axons. Good survival, in culture, of the cortical neurons is dependent on the initial seeding density, which must be high. Consequently, a large number of cortical axons invade the central and distal chambers. Moreover, since the cortical axons have many branches, the immunohistochemical analysis of the axonal tubulin in the axonal chambers is therefore complex, and the axons are difficult to individualize. The proportion of axon entering the central chamber and emerging in the distal axonal chamber was estimated by calculating a ratio of intensity of overall fluorescence of the b3-tubulin labeling of identical surface areas captured in the central chamber and the distal axonal chamber. […]

[4] = system: Cerebellar neurons; experiment: Axonal degeneration of cerebellar neurons after somatic staurosporin, microfluidic device D1 (Example 14); details: for axon-protecting effect against staurosporin-induced axonal degeneration: compound applied concomitantly to the axons only, staurosporin on the somas
Description: Cerebellar neurons are seeded into microfluidic devices according to the invention and treated with an apoptosis inducer (1 μM staurosporin, STS) at the somatic level. This induces axonal degeneration in the distal chamber (Phi). Apoptosis-blocking compounds (zVAD) or proteases of calpain type (Cal-Inh) are applied specifically to the axons (and not to the somas). The “axon-protecting” effect is quantified on the graph on the right in FIG. 19. Devices D1 are used. Neurons (in this case from the cerebellum) are seeded and their axons pass through the asymmetrical microchannels so as to reach the second chamber (or the 3rd if the device has three compartments). A stress (in this case staurosporin, which is a pro-apoptotic agent) is applied to the soma of the neurons. […] The effect of “axon-protecting” molecules can thus be evaluated. FIG. 19 illustrates the start of axonal degeneration induced by the application of a pro-apoptotic stress applied to the somato-dendritic compartment of neurons. This causes the propagation of a destructive signal in the axon, which then degenerates early, before the cell soma.

[5] = system: striatal erk kinase; experiment: Phosphorylation of striatal erk kinase in corticostriatal network, device D3 (Example 13); details: after seven days in vitro; cortical depolarization
Description: FIG. 18 represents microfluidic chambers separated by asymmetrical microchannels.
This experiment was carried out with the device D3.
The cortical neurons are seeded on the left and the striatal neurons on the right. After seven days in vitro, the cortical axons establish connections with the striatal neurons (β3-tubulin in green, striatal neurons in red (MAP2)).

Triton X100
section of axons by detergent ([1]; Triton X100 0.1% applied for 1 min on central portion of the axons): immediate section of the central portion of the axons

NC(=O)c1ccc[n+]([C@@H]2O[C@H](COP(=O)([O-])OP(=O)(O)OC[C@H]3O[C@@H](n4cnc5c(N)ncnc54)[C@H](O)[C@@H]3O)[C@@H](O)[C@H]2O)c1 [NAD, β-nicotinamide adenine dinucleotide hydrate]
degeneration of transected cortical axons (axon-protecting effect) ([1]; after axotomy, NAD added to the striatal compartment at the time of axotomy, FIG. 20, hydrate): axon-protecting effect; also recorded: delays | presynaptic degeneration of the corticostriatal junction (Vglut-1) ([2]; FIG. 21, hydrate): delays presynaptic degeneration | presynaptic degeneration of the corticostriatal junction (Vglut-1) ([2]; FIG. 21, listed as NAD+, hydrate): Delays Deconnection | degeneration of cut axons ([3]; 5 mM pretreatment 24 h before axotomy, 8 h after axotomy (all control axons fragmented)): do not exhibit any sign of degeneration | persistence of axon protection ([3]; 5 mM pretreatment 24 h before axotomy, 24 hours after axotomy): protection disappears | signs of axonal degeneration after axotomy ([3]; neurons pretreated 24 h before axotomy with 5 mM): delayed | axon-protecting effect against staurosporin-induced axonal degeneration [4]: delays this axonal degeneration

[Cl-].[K+] [KCl]
phosphorylation of the striatal erk kinase [5]: triggers phosphorylation

CCCC[C@@H](C=O)NC(=O)[C@H](CC(C)C)NC(=O)[C@H](CC(C)C)NC(C)=O [ALLN, N-acetyl-Leu-Leu-Nle-CHO] (Ac-Leu-Leu-[Nle]-aldehyde)
occurrence of axon fragmentation after axotomy [3]: does not delay the occurrence of axon fragmentation | protective effect against axon fragmentation after axotomy [3]: absence of protective effect

C[C@]12N[C@H](Cc3ccccc31)c1ccccc12 [MK801]
phosphorylation of the striatal erk kinase [5]: inhibition

COC(=O)C[C@H](NC(=O)[C@H](C)NC(=O)[C@@H](NC(=O)OCc1ccccc1)C(C)C)C(=O)CF [zVAD] (Cbz-Val-Ala-Asp(OMe)-CH2F)
occurrence of axon fragmentation after axotomy [3]: does not delay the occurrence of axon fragmentation | protective effect against axon fragmentation after axotomy [3]: absence of protective effect | axon-protecting effect against staurosporin-induced axonal degeneration [4]: prevents this degeneration; also recorded: delays this axonal degeneration

saponin
destruction of axon segments by detergent flow ([3]; 0.1% saponin, flow for 2 minutes in the central compartment): immediate destruction of the axon segments contained in the central compartment

CN[C@@H]1C[C@H]2O[C@@](C)([C@@H]1OC)n1c3ccccc3c3c4c(c5c6ccccc6n2c5c31)C(=O)NC4 [staurosporin]
axon degeneration induced by stress applied to the soma ([4]; 1 μM staurosporin at the somatic level, axons in distal chamber, in 24 h): induces axon degeneration
